# From patent publication US20260137662A1, “CD11B AGONISTS FOR TREATMENT OF AUTOIMMUNE DISEASE” (Rush University Medical Center, priority 2022, published 2026)
# What was measured:
# [1] = system: TLR-stimulation dependent pro-inflammatory pathways; assay: suPAR and TNFa secretion from myeloid (RAW) cells stimulated with TLR-stimulants or PMA (ELISA); format: cell-based, murine; conditions: co-treatment TLR-stimulant (LPS, PMA, Pam2CSK4, Pam3CSK4, IMQ) and LA1 (20 uM), 4 hours
# Experimental: (§1) FIG. 2A illustrates the levels of biomarker suPAR secretion from RAW cells after treatment with LPS (50ng/ml), PMA (0.1 ug/mL), Pam2CSK4 (0.1 ug/mL), Pam3CSK4 (0.1 ug/mL), Imiquimod (IMQ) (20 ug/mL), LA1 (20 uM), or co-treatments. Bars show mean with SD (N=3) (*P<0.05, **P<0.01, ***P<0.001, ****P<0.0001).
# as §1, with “2B” for “2A”, “biomarker (A)” for “biomarker”, “suPAR and (B) TNF-a” for “suPAR”
# The effect of LA1 on TLR-stimulation dependent pro-inflammatory pathways was studied by stimulating myeloid cells with different TLR-stimulants (lipopolysaccharide (LPS), Pam2CSK 4, imiquimod (IMQ)) or with phorbol 12-myristate 13-acetate (PMA) and co-treating with LA1. The levels of suPAR (pg/mL) and TNFa (pg/mL) in cell supernatant were measured 4 hours after treatment using ELISA. […] Relative gene expression was also assessed in myeloid cells treated with Poly(I:C), a known toll-like receptor (TLR) agonist, and co-treated with LA1.
# TLR7 mediated pathways = assay: Relative gene expression (RT-PCR) in myeloid cells stimulated with imiquimod; format: cell-based; conditions: IMQ (20 ug/mL) and LA1 (20 uM) co-treatment, 4 hours
# Experimental: FIG. 3A illustrates transcriptional levels of biomarker IL-1b in myeloid cells after 4 hours of treatment with vehicle DMSO (UT), LA1 (20 uM), imiquimod (IMQ) (20 ug/mL), or IMQ and LA1 co-treatment. Bars show mean with SD (N=3) (*P<0.05, **P<0.01, ***P<0.001, ***P<0.0001).
# FIG. 3B illustrates transcriptional levels of biomarker uPAR in myeloid cells after 4 hours of treatment with vehicle DMSO (UT), LA1 (20 uM), imiquimod (IMQ) (20 ug/mL), or IMQ and LA1 co-treatment. Bars show mean with SD (N=3) (*P<0.05, **P<0.01, ***P<0.001, ***P<0.0001).
# FIG. 3C illustrates transcriptional levels of biomarker IL-6 in myeloid cells after 4 hours of treatment with vehicle DMSO (UT), LA1 (20 uM), imiquimod (IMQ) (20 ug/mL), or IMQ and LA1 co-treatment. Bars show mean with SD (N=3) (*P<0.05, **P<0.01, ***P<0.001, ***P<0.0001).
# FIG. 3D illustrates transcriptional levels of biomarker NLRP3 in myeloid cells after 4 hours of treatment with vehicle DMSO (UT), LA1 (20 uM), imiquimod (IMQ) (20 ug/mL), or IMQ and LA1 co-treatment. Bars show mean with SD (N=3) (*P<0.05, **P<0.01, ***P<0.001, ***P<0.0001).
# The impact of CD11b activation by LA1 on TLR7 mediated pathways was assessed by treating myeloid cells with imiquimod (IMQ), a known TLR7 stimulant, and co-treating myeloid cells with IMQ and LA1. Relative gene expression of various biomarkers was assessed by RT-PCR.
# [2] = system: BMDMs from C57BL/6 mice expressing CD11b with a point mutation (KI); assay: Biomarker secretion from IMQ-treated bone marrow derived macrophages of CD11b KI mice; format: cell-based; conditions: KI cells (genetically activated CD11b), IMQ (20 ug/mL) and LA1 (20 uM) co-treatment, 4 hours
# Experimental: (§2) FIG. 7A illustrates levels of biomarker IL-6 secretion in bone marrow derived macrophages (BMDMs) from C57BL/6 wild type (WT) mice, mice with global deletion of CD11b (KO), or C57BL/6 mice expressing CD11b with a point mutation (KI), the macrophages treated for 4 hours with vehicle DMSO (UT), LA1 (20 uM), IMQ (20 ug/mL), or IMQ and LA1 co-treatment. Bars show mean with SD (N=3) (*P<0.05, **P<0.01, ***P<0.001, ****P<0.0001).
# as §2, with “7B” for “7A”, “IL-1b” for “IL-6”
# as §2, with “7C” for “7A”, “suPAR” for “IL-6”
# as §2, with “7D” for “7A”, “IFNb” for “IL-6”
# Bone marrow derived macrophages (BMDMs) from C57BL/6 wild type mice (WT), mice with global deletion of CD11b (KO), and C57BL/6 mice expressing CD11b with a point mutation (KI), as described previously (Martinez et al., 2020) were used to evaluate the effect of pharmacologic activation of CD11b by LA1 or genetic activation of CD11b on TLR-pathway dependent biomarkers. BMDMs from WT, KO, and KI mice were left untreated, treated with LA1, treated with IMQ, or co-treated with LA1 and IMQ and levels of biomarkers IL-1b, suPAR, IL-6 and IFN-b were measured 4 hours after treatment.
compound,measurement,setting,value
"O=C(O)c1ccc(-c2ccc(/C=C3\SC(=S)N(Cc4ccccc4)C3=O)o2)cc1 [LA1, (Z)-4-(5-((3-benzyl-4-oxo-2-thioxothiazolidin-5-ylidene)methyl)furan-2-yl)benzoic acid]",levels of biomarker TNFa in cell supernatant,[1],significantly reduced
same,levels of biomarker suPAR in cell supernatant,[1],significantly reduced
same,TLR7-dependent increase in IL-1b expression level,TLR7 mediated pathways,significantly reduced
same,TLR7-dependent increase in IL-6 expression level,TLR7 mediated pathways,significantly reduced
same,TLR7-dependent increase in NLRP3 expression level,TLR7 mediated pathways,significantly reduced
same,TLR7-dependent increase in uPAR expression level,TLR7 mediated pathways,significantly reduced
same,level of IFN-b in cell supernatant,[2],did not change basal levels
same,level of IL-1b in cell supernatant,[2],did not change basal levels
same,level of IL-6 in cell supernatant,[2],did not change basal levels
same,level of suPAR in cell supernatant,[2],did not change basal levels
